What was measured:
[1] = molecular target: T1, human Farnesoid X receptor ligand-binding domain/Gal4 DNA binding domain chimera (Homo sapiens, UniProt Q96RI1); experiment: Cell-based assay of FXR activation (FXR-UAS-bla HEK 293T beta-lactamase reporter); conditions: for Emax: HEK-293T, read-out: Cellular % Efficacy
T1 construct: host or cells: FXR-UAS-bla HEK 293T (CellSensor UAS-bla HEK 293T)
T1 sequence (Q96RI1 262-486 limits assumed): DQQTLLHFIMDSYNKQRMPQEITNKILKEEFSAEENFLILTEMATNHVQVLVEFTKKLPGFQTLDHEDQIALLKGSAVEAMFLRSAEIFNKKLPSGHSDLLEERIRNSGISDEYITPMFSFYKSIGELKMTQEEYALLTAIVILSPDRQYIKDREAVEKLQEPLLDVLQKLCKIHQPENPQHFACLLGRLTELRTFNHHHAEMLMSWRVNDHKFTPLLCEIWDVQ
Experimental: FXR activation was measured using a cell line and procedure obtained from Life Technologies (Cat #K1691). […] Activation of FXR by bound ligands results in transcriptional activation of the beta-lactamase reporter gene, which is detected via assay of beta-lactamase activity.
Cells are harvested and diluted into assay medium containing phenol red-free DMEM supplemented with 2% Charcoal-stripped FBS, pyruvate, non-essential amino acids. Cells are then transferred to a 384 well assay plate. Test compounds are dissolved in DMSO and a 3-fold serial dilution series is generated, then further diluted into assay medium. Compounds in assay medium are added to cells in the 384 well plate and allowed to incubate 16 h at 37 C in the presence of 5% CO2.
A FRET-based […] (CCF4) is loaded into cells as its acetomethoxy ester. Intracellular esterases liberate free CCF4, a cephalosporin core linking 7-hydroxycoumarin to fluorescein. In the presence of beta-lactamase activity produced in the presence of FXR agonists, cleavage of CCF4 spatially separates the two dyes and disrupts FRET, so that exciting the coumarin at 409 nm now produces a blue fluorescence signal at 447 nm. The change in FRET signal is plotted against the test compound concentration and fit to a 3-parameter logistical equation.

[2] = molecular target: T2, ligand binding domain of human FXR (Homo sapiens, UniProt Q96RI1); experiment: biochemical; conditions: for Emax: extent of activation relative to GW4064, read-out: Ligand Binding % Efficacy; for EC50: −log EC50, concentration required to produce 50% activation, FRET 520 nm/495 nm, 1 hour at room temperature, read-out: Ligand Binding pEC50 (converted)
T2 construct: purchased Thermofisher (LanthaScreen) PV4833
T2 sequence (Q96RI1 262-486 limits assumed): T1 sequence (Q96RI1 262-486 limits assumed)
Experimental: The affinity of FXR ligands for the ligand binding domain of FXR was determined using a commercially available human FXR ligand binding assay (LanthaScreen, Thermofisher Cat #PV4833). […] Binding of FXR ligands to the FXR ligand binding domain promotes binding of the fluorescein-labelled SRC2-2 peptide. This causes a FRET signal between the terbium-labelled anti-GST antibody and the fluorescein-labelled SRC peptide which are both bound to the FXR ligand binding domain.
Test compounds are dissolved in DMSO and a 3-fold serial dilution series is generated, then further diluted into assay buffer. The compounds are mixed with 5 nM GST-tagged FXR ligand binding domain, 5 nM Tb-labelled anti-GST antibody and 500 nM fluorescein-labelled SRC2-2 peptide in a pH7.4 buffer. The reaction is incubated at room temperature for 1 hour, then the FRET signal is measured as the ratio of the 520 nm/495 nm emission following excitation at 340 nm. The change in FRET signal is plotted against the test article concentration and fit to a 3-parameter logistical equation.

| Compound | EC50 [1] | Emax [1] | Emax [2] | EC50 [2] |
| --- | --- | --- | --- | --- |
| O=C(O)c1cc(OC2CC2)c2nc(N3C[C@@H]4C[C@H]3C[C@H]4OCc3c(C4CC4)cnn3-c3c(Cl)cccc3Cl)sc2c1 [Compound I-31, 4-cyclopropoxy-2-[(1S,4S,5R)-5-{[4-cyclopropyl-1-(2,6-dichlorophenyl)-1H-pyrazol-5-yl]methoxy}-2-azabicyclo[2.2.1]heptan-2-yl]-1,3-benzothiazole-6-carboxylic acid] | 0.2 nM | 110% | 116% | 1.58 nM |
| O=C(O)c1cc(C2CCOCC2)c2nc(N3C[C@@H]4C[C@H]3C[C@H]4OCc3c(C4CC4)cnn3-c3c(Cl)cccc3Cl)sc2c1 [Compound I-32, 2-[(1S,4S,5R)-5-{[4-cyclopropyl-1-(2,6-dichlorophenyl)-1H-pyrazol-5-yl]methoxy}-2-azabicyclo[2.2.1]heptan-2-yl]-4-(oxan-4-yl)-1,3-benzothiazole-6-carboxylic acid] | 1 nM | 101% | 128% | 2.51 nM |
| O=C(O)CCc1ccc(N2C[C@@H]3C[C@H]2C[C@H]3OCc2c(C3CC3)cnn2-c2c(Cl)cccc2Cl)c(F)c1 [Compound I-33, 3-{4-[(1S,4S,5R)-5-{[4-cyclopropyl-1-(2,6-dichlorophenyl)-1H-pyrazol-5-yl]methoxy}-2-azabicyclo[2.2.1]heptan-2-yl]-3-fluorophenyl}propanoic acid] | 3.98 nM | 99% | 132% | 39.8 nM |
| O=C(O)CCc1ccc(N2C[C@@H]3C[C@H]2C[C@H]3OCc2c(C3CC3)cnn2-c2c(Cl)cccc2Cl)cc1F [Compound I-34, 3-{4-[(1S,4S,5R)-5-{[4-cyclopropyl-1-(2,6-dichlorophenyl)-1H-pyrazol-5-yl]methoxy}-2-azabicyclo[2.2.1]heptan-2-yl]-2-fluorophenyl}propanoic acid] | 10 nM | 98% | 144% | 100 nM |
| O=C(O)c1ccc(N2C[C@@H]3C[C@H]2C[C@H]3OCc2c(-c3c(Cl)cccc3Cl)cnn2C2CC2)cc1 [Compound I-41, 4-[(1S,4S,5R)-5-{[1-cyclopropyl-4-(2,6-dichlorophenyl)-1H-pyrazol-5-yl]methoxy}-2-azabicyclo[2.2.1]heptan-2-yl]benzoic acid] | 794 nM | 117% | 96% | 316 nM |
| O=C(O)c1ccc(N2C[C@@H]3C[C@H]2C[C@H]3OCc2c(-c3c(Cl)cccc3Cl)cnn2C2CC2)cc1F [Compound I-42, 4-[(1S,4S,5R)-5-{[1-cyclopropyl-4-(2,6-dichlorophenyl)-1H-pyrazol-5-yl]methoxy}-2-azabicyclo[2.2.1]heptan-2-yl]-2-fluorobenzoic acid] | 398 nM | 110% | 102% | 251 nM |
| O=C(O)CCc1ccc(N2C[C@@H]3C[C@H]2C[C@H]3OCc2c(-c3c(Cl)cccc3Cl)cnn2C2CC2)cc1 [Compound I-43, 3-{4-[(1S,4S,5R)-5-{[1-cyclopropyl-4-(2,6-dichlorophenyl)-1H-pyrazol-5-yl]methoxy}-2-azabicyclo[2.2.1]heptan-2-yl]phenyl}propanoic acid] | < 31.6 nM | – | – | < 316 nM |
| O=C(O)CCc1ccc(N2C[C@@H]3C[C@H]2C[C@H]3OCc2c(-c3c(Cl)cccc3Cl)cnn2C2CC2)c(F)c1 [Compound I-44, 3-{4-[(1S,4S,5R)-5-{[1-cyclopropyl-4-(2,6-dichlorophenyl)-1H-pyrazol-5-yl]methoxy}-2-azabicyclo[2.2.1]heptan-2-yl]-3-fluorophenyl}propanoic acid] | < 31.6 nM | – | 96% | < 631 nM |
| CS(=O)(=O)CCNC(=O)c1ccc(N2C[C@@H]3C[C@H]2C[C@H]3OCc2c(-c3c(Cl)cccc3Cl)cnn2C2CC2)cc1F [Compound I-45, 4-[(1S,4S,5R)-5-{[1-cyclopropyl-4-(2,6-dichlorophenyl)-1H-pyrazol-5-yl]methoxy}-2-azabicyclo[2.2.1]heptan-2-yl]-2-fluoro-N-(2-methanesulfonylethyl)benzamide] | 1000 nM | 92% | 57% | 398 nM |
| O=C(NS(=O)(=O)C1CCOCC1)c1ccc(N2C[C@@H]3C[C@H]2C[C@H]3OCc2c(-c3c(Cl)cccc3Cl)cnn2C2CC2)cc1 [Compound I-46, 4-[(1S,4S,5R)-5-{[1-cyclopropyl-4-(2,6-dichlorophenyl)-1H-pyrazol-5-yl]methoxy}-2-azabicyclo[2.2.1]heptan-2-yl]-N-(oxane-4-sulfonyl)benzamide] | < 31.6 nM | – | 170% | 100 nM |
| O=C(O)c1cc(F)c2nc(N3C[C@@H]4C[C@H]3C[C@H]4OCc3c(-c4c(Cl)cccc4Cl)cnn3C3CC3)sc2c1 [Compound I-47, 2-[(1S,4S,5R)-5-{[1-cyclopropyl-4-(2,6-dichlorophenyl)-1H-pyrazol-5-yl]methoxy}-2-azabicyclo[2.2.1]heptan-2-yl]-4-fluoro-1,3-benzothiazole-6-carboxylic acid] | 398 nM | 94% | 62% | 251 nM |
| O=C(O)c1cc(OC2CC2)c2nc(N3C[C@@H]4C[C@H]3C[C@H]4OCc3c(-c4c(Cl)cccc4Cl)cnn3C3CC3)sc2c1 [Compound I-48, 4-cyclopropoxy-2-[(1S,4S,5R)-5-{[1-cyclopropyl-4-(2,6-dichlorophenyl)-1H-pyrazol-5-yl]methoxy}-2-azabicyclo[2.2.1]heptan-2-yl]-1,3-benzothiazole-6-carboxylic acid] | 20 nM | 101% | 88% | 39.8 nM |
| O=C(O)c1cc(C2CCOCC2)c2nc(N3C[C@@H]4C[C@H]3C[C@H]4OCc3c(-c4c(Cl)cccc4Cl)cnn3C3CC3)sc2c1 [Compound I-49, 2-[(1S,4S,5R)-5-{[1-cyclopropyl-4-(2,6-dichlorophenyl)-1H-pyrazol-5-yl]methoxy}-2-azabicyclo[2.2.1]heptan-2-yl]-4-(oxan-4-yl)-1,3-benzothiazole-6-carboxylic acid] | < 63.1 nM | 105% | 82% | 100 nM |
| O=C(O)c1ccc(N2C[C@@H]3C[C@H]2C[C@H]3OCc2c(C3CC3)nnn2-c2c(Cl)cccc2Cl)cc1 [Compound I-52, 4-[(1S,4S,5R)-5-{[4-cyclopropyl-1-(2,6-dichlorophenyl)-1H-1,2,3-triazol-5-yl]methoxy}-2-azabicyclo[2.2.1]heptan-2-yl]benzoic acid] | 3.98 nM | 106% | 140% | 6.31 nM |
| O=C(O)c1ccc(N2C[C@@H]3C[C@H]2C[C@H]3OCc2c(C3CC3)nnn2-c2c(Cl)cccc2Cl)cc1F [Compound I-53, 4-[(1S,4S,5R)-5-{[4-cyclopropyl-1-(2,6-dichlorophenyl)-1H-1,2,3-triazol-5-yl]methoxy}-2-azabicyclo[2.2.1]heptan-2-yl]-2-fluorobenzoic acid] | 3.98 nM | 92% | 170% | 6.31 nM |
| O=C(O)CCc1ccc(N2C[C@@H]3C[C@H]2C[C@H]3OCc2c(C3CC3)nnn2-c2c(Cl)cccc2Cl)c(F)c1 [Compound I-54, 3-{4-[(1S,4S,5R)-5-{[4-cyclopropyl-1-(2,6-dichlorophenyl)-1H-1,2,3-triazol-5-yl]methoxy}-2-azabicyclo[2.2.1]heptan-2-yl]-3-fluorophenyl}propanoic acid] | 12.6 nM | 100% | 152% | 20 nM |
| O=C(O)CCc1ccc(N2C[C@@H]3C[C@H]2C[C@H]3OCc2c(C3CC3)nnn2-c2c(Cl)cccc2Cl)cc1F [Compound I-55, 3-{4-[(1S,4S,5R)-5-{[4-cyclopropyl-1-(2,6-dichlorophenyl)-1H-1,2,3-triazol-5-yl]methoxy}-2-azabicyclo[2.2.1]heptan-2-yl]-2-fluorophenyl}propanoic acid] | 15.8 nM | 91% | 147% | 63.1 nM |

From US11753410B2, “Hormone receptor modulators for treating metabolic mutagenic and fibrotic conditions and disorders” (priority 2017, dated 2023)
